Activity calls are given as the source filed them. The rule behind the calls is not given here.
Legend:
[1] = test system: CCRF-CEM; test: Concentration required to inhibit replication of CCRF-CEM deoxycytidine kinase deficient variant CCRF-CEM(dCK-); assay type: functional; conditions: Homo sapiens, read-out: ED50 (the source's name)
[2] = test system: CCRF-CEM; test: Concentration required to inhibit replication of CCRF-CEM cell lines by 50% after 72 hr incubation; assay type: functional; conditions: Homo sapiens, read-out: ED50 (the source's name)
[3] = test system: Human alphaherpesvirus 1; test: Concentration required to inhibit 90% of virus yield during 24-h growth period in HSV-1 cell lines; assay type: functional
[4] = test system: HSV-2; test: Concentration required to inhibit 90% of virus yield during 24-h growth period in HSV-2 cell lines; assay type: functional, Human alphaherpesvirus 2
[5] = test system: L1210; test: (§1) Ratio of survival time of treated to control mice at 25 mg/kg; assay type: functional, Mus musculus
[6] = test system: L1210; test: (§2) Ratio of survival time of treated to control mice at 50 mg/kg; assay type: functional, Mus musculus
[7] = test system: L1210; test: (§3) Ratio of survival time of treated to control mice at 75 mg/kg; assay type: functional, Mus musculus
[8] = test system: L1210; test: (§4) Average survival time includes only those mice that died prior to day 60 at 25 mg/kg; assay type: functional, Mus musculus
[9] = test system: L1210; test: (§5) Average survival time includes only those mice that died prior to day 60 at 50 mg/kg; assay type: functional, Mus musculus
[10] = test system: L1210; test: (§6) Average survival time includes only those mice that died prior to day 60 at 75 mg/kg; assay type: functional, Mus musculus
[11] = test system: L1210; test: Concentration required to inhibit replication of L1210 cell lines by 50% after 72 hr incubation; assay type: functional; conditions: Mus musculus, L1210, 72 h; read-out: ED50 (the source's name)
[12] = test system: P388; test: Concentration required to inhibit replication of P388 cell lines by 50% after 72 hr incubation; assay type: functional; conditions: Mus musculus, P388, 72 h; read-out: ED50 (the source's name)
[13] = test system: CCRF S-180; test: Concentration required to inhibit replication of S-180 cell lines by 50% after 72 hr incubation; assay type: functional; conditions: Mus musculus, CCRF S-180, 72 h; read-out: ED50 (the source's name)
[14] = test system: Mus musculus; test: as §6; assay type: functional
[15] = test system: Mus musculus; test: as §4; assay type: functional
[16] = test system: Mus musculus; test: as §5; assay type: functional
[17] = test system: Mus musculus; test: Long time survivors are the number mice that survived for >60 days relative to the number of treated mice at 75 mg/kg; 0 / 5; assay type: functional, organism-based; design: dose 75 mg/kg
[18] = test system: Mus musculus; test: Long time survivors are the number mice that survived for >60 days relative to the number of treated mice 25 mg/kg; 0 / 5; assay type: functional, organism-based; design: dose 25 mg/kg
[19] = test system: Mus musculus; test: Long time survivors are the number mice that survived for >60 days relative to the number of treated mice at 50 mg/kg; 0 / 5; assay type: functional, organism-based; design: dose 50 mg/kg
[20] = test system: Mus musculus; test: as §1; assay type: functional
[21] = test system: Mus musculus; test: as §2; assay type: functional
[22] = test system: Mus musculus; test: as §3; assay type: functional
[23] = test system: Mus musculus; test: Death due to toxicity occurring at a maximum body weight decrease of 10 to 22% from the average post injection body weight at 25 mg/kg; 2 / 5; assay type: functional, organism-based; design: dose 25 mg/kg
[24] = test system: Mus musculus; test: Death due to toxicity occurring at a maximum body weight decrease of 10 to 22% from the average post injection body weight at 50 mg/kg; 5 / 5; assay type: functional, organism-based; design: dose 50 mg/kg
[25] = test system: Mus musculus; test: Death due to toxicity occurring at a maximum body weight decrease of 10 to 22% from the average post injection body weight at 75 mg/kg; 5 / 5; assay type: functional, organism-based; design: dose 75 mg/kg
[26] = test system: Mus musculus; test: T/C*100 represents the ratio of survival time of treated to control mice *100 at 50 mg/kg; assay type: functional
[27] = test system: Mus musculus; test: T/C*100 represents the ratio of survival time of treated to control mice *100 at 75 mg/kg; assay type: functional

SMILES: C=C1[C@H](n2cc(F)c(N)nc2=O)O[C@H](CO)[C@H]1O
- EC50 [1]: 330 µM
- EC50 [2]: 0.05 µM
- ID90 [3]: 50 µM
- ID90 [4]: 5 µM
- T/C [5]: 316
- T/C [6]: 279
- T/C [7]: 243
- Average survival (days) [8]: 24
- Average survival (days) [9]: 21.2
- Average survival (days) [10]: 18.5
- EC50 [11]: 1.2 µM
- EC50 [12]: 0.6 µM
- EC50 [13]: 1.5 µM

SMILES: Nc1ccn([C@@H]2O[C@H](CO)[C@@H](O)[C@@H]2O)c(=O)n1 [CYTARABINE]
- EC50 [1]: 120 µM
- EC50 [2]: 0.006 µM
- EC50 [11]: 0.05 µM
- Average survival (days) [14]: 8.4
- Average survival (days) [15]: 19.7
- Average survival (days) [16]: 9.6
- Long-term survivors [17]: inactive
- Long-term survivors [18]: inactive
- Long-term survivors [19]: inactive
- T/C [20]: 258
- T/C [21]: 126
- T/C [22]: 111
- Toxic deaths [23]: Partially active
- Toxic deaths [24]: Active
- Toxic deaths [25]: Active
- EC50 [12]: 0.02 µM
- EC50 [13]: 0.2 µM

SMILES: C=C1C(n2ccc(N)nc2=O)O[C@H](CO)[C@@H]1O (stereo not given in full)
- EC50 [1]: 77 µM
- EC50 [2]: 0.03 µM
- ID90 [3]: 26 µM
- ID90 [4]: 5 µM
- EC50 [11]: 0.3 µM
- Average survival (days) [14]: 20.8
- Average survival (days) [15]: 21.6
- Average survival (days) [16]: 21
- T/C [20]: 284
- T/C [26]: 276
- T/C [27]: 273
- EC50 [12]: 0.4 µM
- EC50 [13]: 1.5 µM

SMILES: C=C1[C@H](n2cc(C)c(N)nc2=O)O[C@H](CO)[C@H]1O
- EC50 [2]: 22 µM
- ID90 [3]: 32 µM
- ID90 [4]: 125 µM
- EC50 [11]: > 100 µM
- EC50 [12]: > 100 µM
- EC50 [13]: > 100 µM

SMILES: C=C1[C@H](n2ccc(=O)[nH]c2=O)O[C@H](CO)[C@H]1O
- EC50 [2]: > 100 µM
- ID90 [3]: 50 µM
- ID90 [4]: 50 µM
- EC50 [11]: > 100 µM
- EC50 [12]: > 100 µM
- EC50 [13]: > 100 µM

SMILES: C=C1[C@H](n2cc(F)c(=O)[nH]c2=O)O[C@H](CO)[C@H]1O
- EC50 [2]: 30 µM
- ID90 [3]: >250 µM
- ID90 [4]: >250 µM
- EC50 [11]: 22 µM
- EC50 [12]: > 100 µM
- EC50 [13]: 6.5 µM

SMILES: C=C1C(CO)OC(n2ccc(=O)[nH]c2=O)C1O (stereo not given)
- EC50 [2]: > 100 µM
- EC50 [11]: > 100 µM
- EC50 [12]: > 100 µM
- EC50 [13]: > 100 µM

SMILES: C=C1C(CO)OC(n2ccc(N)nc2=O)C1O (stereo not given)
- EC50 [2]: > 100 µM
- ID90 [3]: >250 µM
- ID90 [4]: >250 µM
- EC50 [11]: > 100 µM
- EC50 [12]: > 100 µM
- EC50 [13]: > 100 µM

SMILES: C=C1[C@H](n2cc(C)c(=O)[nH]c2=O)O[C@H](CO)[C@H]1O
- EC50 [2]: 10 µM
- EC50 [11]: > 100 µM
- EC50 [12]: > 100 µM
- EC50 [13]: > 100 µM

From ChEMBL document CHEMBL1125190, “Synthesis and anticancer and antiviral activities of various 2'- and 3'-methylidene-substituted nucleoside analogues and crystal structure of 2'-deoxy-2'-methylidenecytidine hydrochloride” (J Med Chem, 1991)
